Assays:
[1] = molecular target: T1, porcine pancreatic lipase (PPL) (Sus scrofa, UniProt P00591); assay: p-nitrophenol ester hydrolysis assay, absorbance at […] nm, free PPL; also ligand fishing with immobilized PPL; format: biochemical
T1 construct: gene PNLIP

[2] = molecular target: T1, porcine pancreatic lipase (PPL); assay: p-nitrophenol ester hydrolysis assay, absorbance at […] nm, free PPL; in ligand fishing some nonspecific adsorption to blank MMOF; format: biochemical

T1 sequence (P00591 whole entry): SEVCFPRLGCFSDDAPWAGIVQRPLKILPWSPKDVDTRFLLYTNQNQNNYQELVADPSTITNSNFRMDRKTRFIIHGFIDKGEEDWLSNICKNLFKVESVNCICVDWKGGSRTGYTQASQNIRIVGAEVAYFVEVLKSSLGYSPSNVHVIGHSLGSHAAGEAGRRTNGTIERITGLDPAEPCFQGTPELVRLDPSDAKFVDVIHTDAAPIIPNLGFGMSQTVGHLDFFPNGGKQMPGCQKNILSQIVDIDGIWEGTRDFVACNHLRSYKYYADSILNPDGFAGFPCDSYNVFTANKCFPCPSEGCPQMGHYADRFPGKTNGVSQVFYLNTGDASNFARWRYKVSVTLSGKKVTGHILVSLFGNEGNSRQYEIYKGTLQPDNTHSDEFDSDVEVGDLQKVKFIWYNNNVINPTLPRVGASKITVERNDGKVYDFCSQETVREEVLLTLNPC

SMILES	IC50 [1] [µM]	IC50 [2] [µM]
O=C(O)[C@H]1O[C@@H](Oc2cc3oc(-c4ccccc4)cc(=O)c3c(O)c2O)[C@H](O)[C@@H](O)[C@@H]1O [compound 3, Baicalin]	242 ± 5.6	
COc1c(O)cc(O)c2c(=O)cc(-c3ccccc3)oc12 [compound 7, Wogonin]		168 ± 8.4
COc1c(O)cc2oc(-c3ccccc3)cc(=O)c2c1O [compound 8, Oroxylin A]	82.7 ± 3.6	

Reference: PMC9182405, “Rapid Screening of Lipase Inhibitors in Scutellaria baicalensis by Using Porcine Pancreatic Lipase Immobilized on Magnetic Core–Shell Metal–Organic Frameworks” (Molecules, 2022)
